According to patent US3936463A, “Benzomorphanes” (priority 1972, dated 1976):

Key:
in vivo = details: rat, sc
Method: (§1) The numbering of the compounds is the same as the numbering of the preparative examples. […] The ED50 and LD50 were calculated relative to the base.

rat tails = test: animal or person; details: for ED50: Rattus norvegicus, sc, read-out: Analgesic action in heat radiation test on rat tails, ED 50; for Therapeutic index LD 50 / ED 50 / Analgesic action in heat radiation test on rat tails, ED 50: rats, s.c.; for Therapeutic index LD 50 / ED 50: calculated from LD 50 and ED 50; for Analgesic action in heat radiation test on rat tails, ED 50: calculated relative to the base
Method: as §1

[1] = tested on: Morphine-dependent monkeys; test: Morphine-replacement action (elimination of withdrawal symptoms) in morphine-dependent monkeys; type: in vivo, monkey; details: grade, scale not defined
Method: as §1

Morphine-dependent rats [2] = test: Morphine replacement action (elimination of withdrawal symptoms) in morphine-dependent rats; type: in vivo, rat; details: grade, scale not defined
Method: as §1

Morphine-dependent rats [3] = test: Morphine-antagonistic action (provocation of withdrawal symptoms) in morphine-dependent rats; type: in vivo, rat; details: grade, scale not defined
Method: as §1

[4] = tested on: Morphine-dependent monkeys; test: Morphine-antagonistic action (provocation of withdrawal symptoms) in morphine-dependent monkeys; type: in vivo, monkey; details: grade, scale not defined
Method: as §1

COc1ccc2c3c1O[C@H]1[C@@H](O)C=C[C@H]4[C@@H](C2)N(C)CC[C@@]341 [Codeine, reference compound]
LD50 (in vivo): 202 mg/kg
ED50 (rat tails): 4.5 mg/kg
Therapeutic index LD 50 / ED 50 (rat tails): 51
Morphine-replacement action (elimination of withdrawal symptoms) [1]: 3
Morphine replacement action (elimination of withdrawal symptoms) (Morphine-dependent rats [2]): 3
Morphine-antagonistic action (provocation of withdrawal symptoms) (Morphine-dependent rats [3]): 0

CCC12CCN(CC3CC3)C(Cc3ccc(OCCCOC(C)=O)cc31)C2C (stereo not drawn) [Example 1, 2-Cyclopropylmethyl-5-ethyl-9-methyl-2'-[3-acetoxypropoxy-(1)]-6,7-benzomorphan]
LD50 (in vivo): 352 mg/kg
ED50 (rat tails): 0.42 mg/kg
Therapeutic index LD 50 / ED 50 (rat tails): 838
Morphine-replacement action (elimination of withdrawal symptoms) [1]: 0
Morphine-antagonistic action (provocation of withdrawal symptoms) [4]: 1-2
Morphine replacement action (elimination of withdrawal symptoms) (Morphine-dependent rats [2]): 0
Morphine-antagonistic action (provocation of withdrawal symptoms) (Morphine-dependent rats [3]): 2

CCC(=O)OCCCOc1ccc2c(c1)C1(CC)CCN(CC3CC3)C(C2)C1C (stereo not drawn) [Example 2a, 2-Cyclopropylmethyl-5-ethyl-9-methyl-2'-[3-propionyloxy-propoxy-(1)]-6,7-benzomorphan]
LD50 (in vivo): 296 mg/kg
ED50 (rat tails): 0.49 mg/kg
Therapeutic index LD 50 / ED 50 (rat tails): 604
Morphine-replacement action (elimination of withdrawal symptoms) [1]: 0
Morphine-antagonistic action (provocation of withdrawal symptoms) [4]: 2
Morphine replacement action (elimination of withdrawal symptoms) (Morphine-dependent rats [2]): 0
Morphine-antagonistic action (provocation of withdrawal symptoms) (Morphine-dependent rats [3]): 2

CCC12CCN(CC3CC3)C(Cc3ccc(OCCCOC(=O)C(C)C)cc31)C2C (stereo not drawn) [Example 2b, 2-Cyclopropylmethyl-5-ethyl-9-methyl-2'-[3-isobutyryloxy-propoxy-(1)]-6,7-benzomorphan]
LD50 (in vivo): ~300 mg/kg
ED50 (rat tails): 1 mg/kg
Therapeutic index LD 50 / ED 50 (rat tails): ~ 300
Morphine replacement action (elimination of withdrawal symptoms) (Morphine-dependent rats [2]): 0
Morphine-antagonistic action (provocation of withdrawal symptoms) (Morphine-dependent rats [3]): 1

CCC12CCN(CC3CC3)C(Cc3ccc(OCCCOC(=O)C(C)(C)C)cc31)C2C (stereo not drawn) [Example 4a, 2-Cyclopropylmethyl-5-ethyl-9-methyl-2'-[3-pivaloyloxy-propoxy-(1)]-6,7-benzomorphan]
LD50 (in vivo): > 500 mg/kg
ED50 (rat tails): 0.97 mg/kg
Therapeutic index LD 50 / ED 50 (rat tails): > 515
Morphine replacement action (elimination of withdrawal symptoms) (Morphine-dependent rats [2]): 0
Morphine-antagonistic action (provocation of withdrawal symptoms) (Morphine-dependent rats [3]): 1

C/C=C/C(=O)OCCCOc1ccc2c(c1)C1(CC)CCN(CC3CC3)C(C2)C1C (stereo not drawn) [Example 4d, 2-Cyclopropylmethyl-5-ethyl-9-methyl-2'-[3-crotonoyloxy-propoxy-(1)]-6,7-benzomorphan]
ED50 (rat tails): 0.35 mg/kg
Morphine-antagonistic action (provocation of withdrawal symptoms) [4]: 3
Morphine replacement action (elimination of withdrawal symptoms) (Morphine-dependent rats [2]): 0
Morphine-antagonistic action (provocation of withdrawal symptoms) (Morphine-dependent rats [3]): 2

CCC12CCN(CC3CC3)C(Cc3ccc(OCCCOC(=O)c4ccccc4)cc31)C2C (stereo not drawn) [Example 4e, 2-Cyclopropylmethyl-5-ethyl-9-methyl-2'-[3-benzoyloxy-propoxy-(1)]-6,7-benzomorphan]
ED50 (rat tails): 0.42 mg/kg
Morphine-antagonistic action (provocation of withdrawal symptoms) [4]: 2

CCC12CCN(CC3CC3)C(Cc3ccc(OCC(C)COC(C)=O)cc31)C2C (stereo not drawn) [Example 6a, 2-Cyclopropylmethyl-5-ethyl-9-methyl-2'-[3-acetoxyisobutoxy-(1)]-6,7-benzomorphan]
ED50 (rat tails): 0.42 mg/kg
Morphine-antagonistic action (provocation of withdrawal symptoms) [4]: 3

C/C=C/C(=O)OCC(C)COc1ccc2c(c1)C1(CC)CCN(CC3CC3)C(C2)C1C (stereo not drawn) [Example 6b, 2-Cyclopropylmethyl-5-ethyl-9-methyl-2'-[3-crotonoyloxyisobutoxy-(1)]-6,7-benzomorphan]
ED50 (rat tails): 0.31 mg/kg
Morphine-antagonistic action (provocation of withdrawal symptoms) [4]: 3

CC(=O)OCCCOc1ccc2c(c1)C1(C)CCN(CC3CC3)C(C2)C1C (stereo not drawn) [Example 7, 2-Cyclopropylmethyl-5,9-dimethyl-2'-[3-acetoxypropoxy-(1)]-6,7-benzomorphan]
LD50 (in vivo): ~400 mg/kg
ED50 (rat tails): 1.6 mg/kg
Therapeutic index LD 50 / ED 50 (rat tails): ~ 258
Morphine replacement action (elimination of withdrawal symptoms) (Morphine-dependent rats [2]): 0
Morphine-antagonistic action (provocation of withdrawal symptoms) (Morphine-dependent rats [3]): 1

CCC(=O)OCCCOc1ccc2c(c1)C1(C)CCN(CC3CC3)C(C2)C1C (stereo not drawn) [Example 8, 2-Cyclopropylmethyl-5-9-dimethyl-2'-[3-propionyloxypropoxy-(1)]-6,7-benzomorphan]
LD50 (in vivo): ~425 mg/kg
ED50 (rat tails): 1.6 mg/kg
Therapeutic index LD 50 / ED 50 (rat tails): ~ 262
Morphine replacement action (elimination of withdrawal symptoms) (Morphine-dependent rats [2]): 1
Morphine-antagonistic action (provocation of withdrawal symptoms) (Morphine-dependent rats [3]): 1

CCC12CCN(CC3CC3)C(Cc3ccc(OCCCCOC(C)=O)cc31)C2C (stereo not drawn) [Example 9, 2-Cyclopropylmethyl-5-ethyl-9-methyl-2'-[4-acetoxybutoxy-(1)]-6,7-benzomorphan]
LD50 (in vivo): > 500 mg/kg
ED50 (rat tails): 0.61 mg/kg
Therapeutic index LD 50 / ED 50 (rat tails): > 820
Morphine replacement action (elimination of withdrawal symptoms) (Morphine-dependent rats [2]): 0-1
Morphine-antagonistic action (provocation of withdrawal symptoms) (Morphine-dependent rats [3]): 1

CCC(=O)OCCCCOc1ccc2c(c1)C1(CC)CCN(CC3CC3)C(C2)C1C (stereo not drawn) [Example 10a]
LD50 (in vivo): > 500 mg/kg
ED50 (rat tails): 0.62 mg/kg
Therapeutic index LD 50 / ED 50 (rat tails): > 806
Morphine replacement action (elimination of withdrawal symptoms) (Morphine-dependent rats [2]): 0
Morphine-antagonistic action (provocation of withdrawal symptoms) (Morphine-dependent rats [3]): 2

CCC12CCN(CC3CC3)C(Cc3ccc(OCCCCOC(=O)C(C)C)cc31)C2C (stereo not drawn) [Example 10b, 2-Cyclopropylmethyl-5-ethyl-9-methyl-2'-[4-isobutyryloxybutoxy-(1)]-6,7-benzomorphan]
LD50 (in vivo): > 500 mg/kg
ED50 (rat tails): 0.42 mg/kg
Therapeutic index LD 50 / ED 50 (rat tails): > 1,190
Morphine replacement action (elimination of withdrawal symptoms) (Morphine-dependent rats [2]): 0
Morphine-antagonistic action (provocation of withdrawal symptoms) (Morphine-dependent rats [3]): 1

CCC12CCN(CC3CC3)C(Cc3ccc(OC(C)(C)COC(C)=O)cc31)C2C (stereo not drawn) [Example 11, 2-Cyclopropylmethyl-5-ethyl-9-methyl-[1-acetoxy-2-methyl-propoxy-(2)]-6,7-benzomorphan]
ED50 (rat tails): 0.47 mg/kg
Morphine-antagonistic action (provocation of withdrawal symptoms) [4]: 1

CCC12CCN(CC3CC3)C(Cc3ccc(OCC(C)CCOC(C)=O)cc31)C2C (stereo not drawn) [Example 17, 2-Cyclopropylmethyl-5-ethyl-9-methyl-2'-[4-acetoxy-2-methylbutoxy-(1)]-6,7-benzomorphan]
Analgesic action in heat radiation test on rat tails, ED 50 (rat tails): 0.96 mg/kg
Morphine-antagonistic action (provocation of withdrawal symptoms) [4]: 2

CCC(=O)OCCC(C)COc1ccc2c(c1)C1(CC)CCN(CC3CC3)C(C2)C1C (stereo not drawn) [Example 18]
Analgesic action in heat radiation test on rat tails, ED 50 (rat tails): 1.36 mg/kg
Morphine-antagonistic action (provocation of withdrawal symptoms) [4]: 2

CCC12CCN(CC3CC3)C(Cc3ccc(OCCCOC(=O)c4cccnc4)cc31)C2C (stereo not drawn) [Example 20]
ED50 (rat tails): 1.2 mg/kg
Morphine-antagonistic action (provocation of withdrawal symptoms) [4]: 1

CCC12CCN(CC3CC3)C(Cc3ccc(OCCCOC(=O)COc4ccccc4)cc31)C2C (stereo not drawn) [Example 21a, 2-Cyclopropylmethyl-5-ethyl-9-methyl-2'-[3-phenoxyacetoxypropoxy-(1)]-6,7-benzomorphan]
ED50 (rat tails): 1.2 mg/kg
Morphine-antagonistic action (provocation of withdrawal symptoms) [4]: 2

CCOC(=O)N(C)C(=O)OCCCOc1ccc2c(c1)C1(CC)CCN(CC3CC3)C(C2)C1C (stereo not drawn) [Example 23, 2-cyclopropylmethyl-5-ethyl-9-methyl-2'-[3-N-ethoxycarbonyl-N-methyl-carbamoyloxypropoxy-(1)]-6,7-benzomorphan]
ED50 (rat tails): 1.2 mg/kg
Morphine-antagonistic action (provocation of withdrawal symptoms) [4]: 2

CN1CC[C@]23c4c5ccc(O)c4O[C@H]2[C@@H](O)C=C[C@H]3[C@H]1C5 [Morphine, reference compound]
Analgesic action in heat radiation test on rat tails, ED 50 (rat tails): 1.78 mg/kg

CC(C)=CCN1CCC2(C)c3cc(O)ccc3CC1C2C (stereo not drawn) [Pentazocine, reference compound]
LD50 (in vivo): 140 mg/kg
ED50 (rat tails): 4.8 mg/kg
Therapeutic index LD 50 / ED 50 (rat tails): 29
Morphine-antagonistic action (provocation of withdrawal symptoms) [4]: 2
Morphine replacement action (elimination of withdrawal symptoms) (Morphine-dependent rats [2]): 1
Morphine-antagonistic action (provocation of withdrawal symptoms) (Morphine-dependent rats [3]): 2

CCOC(=O)C1(c2ccccc2)CCN(C)CC1 [Pethidine, reference compound]
LD50 (in vivo): 113 mg/kg
ED50 (rat tails): 5.7 mg/kg
Therapeutic index LD 50 / ED 50 (rat tails): 20
